According to patent publication US20230355674A1, “DONOR T-CELLS WITH KILL SWITCH” (CSL Behring LLC, priority 2020, published 2023):
Entries after “also recorded” stand apart in the source; their conditions may differ.

Legend:
[1] = tested on: CEM cells; test: Negative selection with MTX or MPA, transduced or transfected CEM cells; type: cell-based; details: 1 μM or 10 μM of MPA, day 0 to day 14
Experimental: Transduced or transfected CEM cells (such as those from Example 1) were cultured with or without MTX from day 0 to day 14. The medium was refreshed every 3 to 4 days. GFP was analyzed on flow machine and InDel % was analyzed by T7E1 assay.

[2] = tested on: HPRT protein; test: Western blot of HPRT protein in gRNA modified CEM cells; type: cell-based, human
Experimental: (§1) CEM T cell leukemia cells were electroporated (1600V, 10 ms pulse width, 3 pulses by using the Neon Transfection system) with ribonucleoprotein (RNP) complexes containing guide RNA (see Example 21) designed in-house and obtained from Integrated DNA Technologies (IDT), together with Cas9 and tracrRNA. Cells confirmed to be transfected with the gRNA via the use of the tracr RNA (24 hours post electroporation) were purified using fluorescence activated cells sorting (FACS) prior to culture for a further 72 hours, followed by assessment of cell survival when challenged with increasing concentrations of 6-thioguanine (6-TG) compared to wild type (unmodified) CEM cells.
Unmodified and modified CEM cells were also used for isolation of protein and detection of the HPRT protein using Western blot (FIG. 39, top panel). […] Actin protein detection (FIG. 39, bottom panel) was used as a protein loading control.
CEM T cell leukemia cells were electroporated (1600V, 10 ms pulse width, 3 pulses by using the Neon Transfection system) with ribonucleoprotein (RNP) complexes containing guide RNA (gRNA; legend) designed in-house and obtained from Integrated DNA Technologies (IDT), together with Cas9 and tracrRNA. Cells confirmed to be transfected with the gRNA via the use of the tracr RNA (24 hours post electroporation) were purified using fluorescence activated cells sorting (FACS) prior to culture for 10 days in the presence of 10 uM 6-TG, replenished with fresh 6-TG every 48-72 hours.
Following the selection period, protein was extracted from each cell and used for western blot-based detection of the HPRT protein. Detection of beta-actin was used as a protein loading control (Actin Antibody (ACTBD11B7): sc-81178. Santa Cruz).

[3] = tested on: CEM T cell leukemia cells; test: 6-TG selection and 6-TG challenge of gRNA modified CEM cells (cell viability); type: cell-based; details: CEM, 10 μM 6-TG for 1 week, vs wild-type
Experimental: (§2) Cells confirmed to be transfected with the gRNA via the use of the tracr RNA (24 hours post electroporation) were purified using fluorescence activated cells sorting (FACS) prior to culture in 10 μM 6-TG for 1 week replenished with fresh 6-TG every 48-72 hours.
(§3) After 10 days in the presence of 10 uM 6-TG, replenished with fresh 6-TG every 48-72 hours, each cell line was challenged with increasing concentrations of 6-thioguanine (6-TG) and cell viability was compared to wild type (unmodified) CEM cells (see FIG. 40B).

[4] = tested on: HPRT1 gene; test: ICE scoring (indel, knockout score) of gRNA editing in CEM cells; type: cell-based, human
Description: The top candidate guide RNAs from Example 21 were screen in Jurkat cell lines (n=1) and validated in CEM cell lines (n=2). For instance, Jurkat cells were electroporated with a ribonucleoprotein (RNP) complex containing guide RNA (e.g. an RNP including a guide RNA having any one of SEQ ID NOS: 40-49) together with the Cas9 and tracrRNA. The methodology and analysis was the same for both Jurkat cell lines and CEM cell lines (see also, FIG. 37). Following electroporation, cell viability was measured at different concentrations of 6-TG (see FIG. 36).
(§4) Indel Percentage—The editing efficiency (percentage of the pool with non-wild type sequence) as determined by comparing the edited trace to the control trace. In the ICE algorithm, potential editing outcomes are proposed and fitted to the observed data using linear regression.
(§5) Knockout Score—Represents the proportion of cells that have either a frameshift or 21+bp indel. This score is a useful measure for those who are interested in understanding how many of the contributing indels are likely to result in a functional Knockout (KO) of the targeted gene.
as §1

[5] = 6-TG selection and 6-TG challenge of gRNA modified CEM cells (cell viability); type: cell-based; details: human, wild type (unmodified) CEM T cell leukemia cells; wild type CEM, 6-TG at 40 uM
Experimental: as §2, §3

[6] = tested on: Jurkat cells; test: HPRT knockout Jurkat cells, resistance to 6-TG (luminescence, ATP detection); type: cell-based; details: 6-TG tested up to 10 uM, vs wild type
Experimental: (§6) Jurkat cells were electroporated with a ribonucleoprotein (RNP) complex containing guide RNA (gRNA; GS-4; designated IDT-4) together with the Cas9 and tracrRNA. Cells which were confirmed to be transfected with the gRNA via tracr RNA were purified using fluorescence activated cells sorting (FACS) and subsequently cultured for 72 hours. Increasing concentrations of 6-thioguanine (6-TG) were then administered to the transduced cultured cells to assess resistance. Wild type (unmodified) Jurkat cells were used as a control.
Luminescence (ATP detection) was used to assess cell viability.

[7] = tested on: Jurkat cells; test: HPRT knockout Jurkat cells, MTX dose response; type: cell-based; details: MTX 0.00625 and 0.0125 μM, cultured for 5 days
Experimental: Jurkat cells (unmodified; WT) were cultured with increasing concentrations of methotrexate (MTX) to determine the MTX dosage window required to kill WT cells (see FIG. 28). A dose range of between 0.00625 and 0.025 μM MTX was selected for subsequent assessment of HPRT Knockout (IDT-4 modified) Jurkat cells.
Dose response of HPRT Knockout (IDT-4 modified) Jurkat cells to MTX was compared to unmodified Jurkat cells (WT) to determine sensitivity to MTX (see FIG. 29).

[8] = tested on: HPRT protein; test: Western blot of HPRT protein in Jurkat cells; type: cell-based, human; details: vs unmodified (WT)
Experimental: as §6
Unmodified (WT) and IDT-4 modified Jurkat cells were also analyzed for HPRT protein using Western blot (see FIG. 25). […] Actin protein detection (bottom panel) was used as a protein loading control.

[9] = tested on: HPRT1 gene; test: ICE scoring (indel, knockout score) of gRNA editing in primary T cells; type: cell-based; details: primary human T cells
Description: as §4, §5
FIG. 44 illustrates a method of modifying primary T-cells in accordance with one embodiment of the present disclosure. FIGS. 45A-45C illustrate 6-TG dose responses seven days following the modification of the primary T-cells in accordance with the modification methods described herein. In particular, FIGS. 45A and 45B illustrate the targeting of Exon 3 (guide RNA 13) and Exon 8 (guide RNA 21). The references “#9” and “#10” denote T-cell number and UT control (electroporated without RNP). […]
(§7) Peripheral blood mononuclear cells (PBMC) were isolated from Australian Red Cross Blood donor samples (n=2) via density centrifugation. […] By day 7, the original mixed PBMC population was determined to be primarily CD3+ T cells (flow cytometry; data not shown).

[10] = tested on: primary human T cells; test: MTX dose response in 6-TG selected primary human T cells; type: cell-based; details: primary human T cells after 12 days 1 μM 6-TG, MTX dose range 2 days, thymidine 16 μM
Experimental: Primary human T cells modified using guide RNAs targeting the HPRT1 gene and subsequently placed under selection pressure for 12 days with 1 μM 6-TG, with 6-TG replenished every 2 to 3 days, were subjected to a dose range of MTX in the presence of thymidine 16 μM for 2 days and assessed for cell viability.

[11] = tested on: primary human T cells; test: 6-TG resistance of gRNA modified primary human T cells (viability); type: cell-based; details: donors #9 and #10, 1 uM 6-TG, day 8 and day 13, vs unmodified
Description: FIG. 44 illustrates a method of modifying primary T-cells in accordance with one embodiment of the present disclosure. FIGS. 45A-45C illustrate 6-TG dose responses seven days following the modification of the primary T-cells in accordance with the modification methods described herein. In particular, FIGS. 45A and 45B illustrate the targeting of Exon 3 (guide RNA 13) and Exon 8 (guide RNA 21). The references “#9” and “#10” denote T-cell number and UT control (electroporated without RNP). FIG. 45C illustrates unmodified cells from donor #9 and donor #10 tested with increasing concentrations of 6-TG (day 4). It was observed that the […] primary T-cells were very sensitive to low doses of 6-TG. ICE Scores are shown below.
as §7
The cells were then cultured for about 7 and about 12 days in the presence of 1 uM 6-TG, with 6-TG replenished every about 2 to about 3 days. At each of these time points, the cells were assessed for the proportion of viable cells compared to untreated (UT) controls.

[12] = after 10 days of 6-TG selection (10 uM)

For `COc1c(C)c2c(c(O)c1C/C=C(\C)CCC(=O)O)C(=O)OC2` [MPA, Mycophenolic acid], the “HPRT knockout population of CEM cells” value [1] was “eliminated at a faster pace” and the “GFP population of transduced (HPRT knockdown) cells” value ([1]; CEM cells) was “decreased”.

For “gRNA 22: sgRNA guide and PAM GAAGTATTCATTATAGTCAAGGG, HPRT 1 target Exon 8 (listed as DNA, chemistry not given here)”, the “HPRT protein (Western blot)” value ([2]; 72 hours post-electroporation, no 6-TG selection, listed as guide 22) was “undetectable levels of HPRT; also recorded: non-detectable” and the “HPRT protein (Western blot)” value [2, 12] was “remained undetectable”.

For “gRNA 15: sgRNA guide and PAM GATGTGATGAAGGAGATGGGAGG, HPRT 1 target Exon 3 (listed as DNA, chemistry not given here)”, the “cell viability under 6-TG selection” value [3] was “more variable viability”, the “editing (ICE scoring), in words” value [4] was “efficient editing” and the “HPRT protein (Western blot)” value [2, 12] was “limited to no detectable levels of HPRT”.

For “gRNA 18: sgRNA guide and PAM TTATGCTGAGGATTTGGAAAGGG, HPRT 1 target Exon 2 (listed as DNA, chemistry not given here)”, the “cell viability under 6-TG selection” value [3] was “more variable viability”, the “editing (ICE scoring), in words” value [4] was “efficient editing” and the “HPRT protein (Western blot)” value ([2]; 72 hours post-electroporation, no 6-TG selection, listed as guide 18) was “reduced compared to wildtype; also recorded: detectable levels of HPRT protein”. For the same compound, the “HPRT protein (Western blot)” value [2, 12] was “limited to no detectable levels of HPRT”.

`Nc1nc2nc[nH]c2c(=S)[nH]1` [6-TG, 6-thioguanine, reference compound] showed a viability at 40 µM [5] of about 10%.

In the case of “gRNA 17: sgRNA guide and PAM GTAGCCCTCTGTGTGCTCAAGGG, HPRT 1 target Exon 3 (listed as DNA, chemistry not given here)”, the “HPRT protein (Western blot)” value ([2]; 72 hours post-electroporation, no 6-TG selection, listed as guide 17) is reported as “undetectable levels of HPRT; also recorded: non-detectable” and the “HPRT protein (Western blot)” value [2, 12] is reported as “remained undetectable”.

With “gRNA 12: sgRNA guide and PAM GCCCCCCTTGAGCACACAGAGGG, HPRT 1 target Exon 4 (listed as DNA, chemistry not given here)” the “HPRT protein (Western blot)” value ([2]; 72 hours post-electroporation, no 6-TG selection, listed as guide 12) was “undetectable levels of HPRT; also recorded: non-detectable” and the “HPRT protein (Western blot)” value [2, 12] was “remained undetectable”.

With “gRNA 19: sgRNA guide and PAM GTGCTTTGATGTAATCCAGCAGG, HPRT 1 target Exon 3 (listed as DNA, chemistry not given here)” the “cell viability under 6-TG selection” value [3] was “more variable viability”, the “editing (ICE scoring), in words” value [4] was “zero editing” and the “HPRT protein (Western blot)” value ([2]; 72 hours post-electroporation, no 6-TG selection, listed as guide 19) was “reduced compared to wildtype; also recorded: detectable levels of HPRT protein”. For the same compound, the “HPRT protein (Western blot)” value [2, 12] was “limited to no detectable levels of HPRT”.

With “IDT-4: lead HPRT knockout guide RNA GGTTATGACCTTGATTTATT (listed as DNA, chemistry not given here)” the “cell viability with increasing doses of 6-TG” value [6] was “resistance to increasing doses of 6-TG”, the “sensitivity to MTX compared to wild type cells” value [7] was “increased sensitivity to MTX” and the “HPRT protein level (Western blot)” value [8] was “undetectable levels of HPRT”.

In the case of “gRNA 13: sgRNA guide and PAM AGCCCCCCTTGAGCACACAGAGG, HPRT 1 target Exon 3 (listed as DNA, chemistry not given here)”, the “knockout efficiency (ICE scoring)” value [9] is reported as “about 43%”, the “HPRT protein (Western blot)” value ([2]; 72 hours post-electroporation, no 6-TG selection, listed as guide 13) is reported as “undetectable levels of HPRT; also recorded: non-detectable” and the “HPRT protein (Western blot)” value [2, 12] is reported as “remained undetectable”. For the same compound, the “sensitivity to MTX compared to wild-type non-modified cells (UT)” value [10] was “increased sensitivity to MTX” and the “proportion of viable cells under 6-TG” value [11] was “increased viability”.
